Biological target: PI3Kalpha (Homo sapiens (Human), UniProt P42336)
Details: read-out: IC50 PI3K
Method: Plot the concentration of each compound versus the emission ratio. […] Determination of IC50 values can be obtained by curve fitting (sigmoidal dose response, variable slope) using Prism software from GraphPad).
Method Type: Filter-Binding-Assay
Compounds are serially diluted in assay buffer+6% DMSO and 10 μl of each dilution is added per well of a 96-well plate (compounds are tested in duplicates) and mixed with 30 μl of the lipid vesicles containing PDGFR-Peptide (0.5 μM final) and PI3K alpha (25 ng/well final). The mixture is then incubated for 20 minutes at room temperature. Subsequently, 20 μl of assay buffer containing 3 μM cold ATP and 0.5 μCi/20 μl 33P-ATP are added. The plates are then incubated at room temperature for 120 minutes (shaking with 300 rpm). The reaction mix is transferred onto filter plates using “filtermate harvester” from Packard: filter plates are rinsed with PBS, then the reaction mix is filtered onto the filter plate, washed 5 times with PBS and are allowed to dry for 30-60 minutes at 50° C.
As positive control serve wells containing vehicle controls (1% DMSO in assay buffer), showing non-inhibited kinase activity (high values). Wells containing assay buffer instead of enzyme can serve as control for background activity (low values).
Calculate IC50 values using the Smiley program (based on GrapPad Prism)

PI3Kalpha, sequence (P42336 whole entry, looked up): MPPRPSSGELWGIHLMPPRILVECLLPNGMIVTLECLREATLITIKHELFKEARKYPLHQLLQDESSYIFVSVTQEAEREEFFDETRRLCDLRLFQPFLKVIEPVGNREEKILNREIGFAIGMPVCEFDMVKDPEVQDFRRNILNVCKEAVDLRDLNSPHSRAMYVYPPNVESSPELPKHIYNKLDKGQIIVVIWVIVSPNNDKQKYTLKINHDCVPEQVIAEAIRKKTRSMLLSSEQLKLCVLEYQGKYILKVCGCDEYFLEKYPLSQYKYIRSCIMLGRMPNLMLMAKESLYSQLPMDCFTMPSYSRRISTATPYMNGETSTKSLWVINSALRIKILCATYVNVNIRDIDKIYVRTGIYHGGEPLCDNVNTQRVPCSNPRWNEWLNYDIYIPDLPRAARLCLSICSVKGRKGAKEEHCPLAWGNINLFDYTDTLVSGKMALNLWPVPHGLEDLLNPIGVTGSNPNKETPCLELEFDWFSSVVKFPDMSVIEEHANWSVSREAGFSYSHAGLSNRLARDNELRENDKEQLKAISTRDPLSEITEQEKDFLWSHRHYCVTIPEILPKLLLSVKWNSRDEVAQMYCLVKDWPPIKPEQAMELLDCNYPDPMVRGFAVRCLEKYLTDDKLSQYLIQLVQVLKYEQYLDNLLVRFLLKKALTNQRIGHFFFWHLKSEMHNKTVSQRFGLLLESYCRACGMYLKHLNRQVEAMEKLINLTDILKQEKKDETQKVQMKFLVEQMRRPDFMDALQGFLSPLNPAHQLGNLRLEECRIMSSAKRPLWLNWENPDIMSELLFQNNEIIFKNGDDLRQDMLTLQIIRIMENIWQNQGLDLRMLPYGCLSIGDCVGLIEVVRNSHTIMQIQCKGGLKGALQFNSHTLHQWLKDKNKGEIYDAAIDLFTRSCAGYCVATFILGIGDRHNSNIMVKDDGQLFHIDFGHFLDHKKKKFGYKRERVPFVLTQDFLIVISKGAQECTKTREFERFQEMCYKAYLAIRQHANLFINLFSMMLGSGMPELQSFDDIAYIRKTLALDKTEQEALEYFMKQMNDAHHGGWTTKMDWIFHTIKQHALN

SMILES | IC50
CCc1ncnc(-c2ccc(C(=O)N3CCN(Cc4ncon4)CC3)c(F)c2)c1C#Cc1ccc(N)nc1 [Example E-346] | 167 nM
CCc1ncnc(-c2ccc(C(=O)N3CCN(C)C[C@H]3C)c(F)c2)c1C#Cc1ccc(N)nc1 [Example E-347] | 205 nM
CCc1ncnc(-c2ccc(C(=O)N3CCN(C)C[C@@H]3C)c(F)c2)c1C#Cc1ccc(N)nc1 [Example E-348] | 144 nM
CCc1ncnc(-c2ccc(C(=O)N3CCN(CC(C)(C)O)CC3)c(F)c2)c1C#Cc1ccc(N)nc1 [Example E-349] | 175 nM
